Calls of active or inactive are those of the source. The calls are words filed in the database; no cut-off is given here.
Key:
Nannizzia gypsea [1] = assay: Antifungal activity against Microsporum gypseum at 100 units/disc after 72 to 96 hr by disc diffusion method; type: functional
Rhizopus [2] = assay: Antifungal activity against Rhizopus at 100 units/disk after 72 to 96 hr by disk diffusion method; type: functional
Mucor [3] = assay: Antifungal activity against Mucor at 100 units/disk after 72 to 96 hr by disk diffusion method; type: functional
Aspergillus flavus [4] = assay: Antifungal activity against Aspergillus flavus at 100 units/disk after 72 to 96 hr by disk diffusion method; type: functional
Rhizopus [5] = assay: Antifungal activity against Rhizopus at 100 ppm after 72 to 96 hr by disk diffusion method; type: functional
Mucor [6] = assay: Antifungal activity against Mucor at 100 ppm after 72 to 96 hr by disk diffusion method; type: functional
Pseudomonas [7] = assay: Antibacterial activity against Pseudomonas at 500 ppm after 24 hr by disk diffusion method; type: functional; settings: read-out: IZ
Streptococcus [8] = assay: Antibacterial activity against beta-hemolytic Streptococcus at 100 ppm after 24 hr by disk diffusion method; type: functional, organism-based
Klebsiella pneumoniae [9] = assay: Antibacterial activity against Klebsiella pneumoniae at 100 ppm after 24 hr by disk diffusion method; type: functional; settings: read-out: IZ
Staphylococcus aureus [10] = assay: Antibacterial activity against Staphylococcus aureus at 500 ppm after 24 hr by disk diffusion method; type: functional; settings: read-out: IZ
Shigella flexneri [11] = assay: Antibacterial activity against Shigella flexneri at 200 ppm after 24 hr by disk diffusion method; type: functional; settings: read-out: IZ
Pseudomonas [12] = assay: Antibacterial activity against Pseudomonas at 200 ppm after 24 hr by disk diffusion method; type: functional; settings: read-out: IZ
Vibrio cholerae [13] = assay: Antibacterial activity against Vibrio cholerae at 500 ppm after 24 hr by disk diffusion method; type: functional; settings: read-out: IZ
Streptococcus [14] = assay: Antibacterial activity against beta-hemolytic Streptococcus at 500 ppm after 24 hr by disk diffusion method; type: functional; settings: read-out: IZ
Aspergillus flavus [15] = assay: Antifungal activity against Aspergillus flavus at 200 ppm after 72 to 96 hr by disk diffusion method; type: functional; settings: read-out: IZ
Shigella flexneri [16] = assay: Antibacterial activity against Shigella flexneri at 100 ppm after 24 hr by disk diffusion method; type: functional; settings: read-out: IZ
Streptococcus [17] = assay: Antibacterial activity against beta-hemolytic Streptococcus at 200 ppm after 24 hr by disk diffusion method; type: functional; settings: read-out: IZ
Aspergillus flavus [18] = assay: Antifungal activity against Aspergillus flavus at 500 ppm after 72 to 96 hr by disk diffusion method; type: functional; settings: read-out: IZ
Klebsiella pneumoniae [19] = assay: Antibacterial activity against Klebsiella pneumoniae at 200 ppm after 24 hr by disk diffusion method; type: functional; settings: read-out: IZ
Vibrio cholerae [20] = assay: Antibacterial activity against Vibrio cholerae at 100 ppm after 24 hr by disk diffusion method; type: functional; settings: read-out: IZ
Shigella flexneri [21] = assay: Antibacterial activity against Shigella flexneri at 500 ppm after 24 hr by disk diffusion method; type: functional; settings: read-out: IZ
Staphylococcus aureus [22] = assay: Antibacterial activity against Staphylococcus aureus at 200 ppm after 24 hr by disk diffusion method; type: functional; settings: read-out: IZ
Escherichia coli [23] = assay: Antibacterial activity against Escherichia coli at 200 ppm after 24 hr by disk diffusion method; type: functional; settings: read-out: IZ
Staphylococcus aureus [24] = assay: Antibacterial activity against Staphylococcus aureus at 100 ppm after 24 hr by disk diffusion method; type: functional
Rhizopus [25] = assay: Antifungal activity against Rhizopus at 200 ppm after 72 to 96 hr by disk diffusion method; type: functional; settings: read-out: IZ
Salmonella typhi [26] = assay: Antibacterial activity against Salmonella enterica subsp. enterica serovar Typhi at 500 ppm after 24 hr by disk diffusion method; type: functional; settings: read-out: IZ
Vibrio cholerae [27] = assay: Antibacterial activity against Vibrio cholerae at 200 ppm after 24 hr by disk diffusion method; type: functional; settings: read-out: IZ
Mucor [28] = assay: Antifungal activity against Mucor at 500 ppm after 72 to 96 hr by disk diffusion method; type: functional; settings: read-out: IZ
Aspergillus flavus [29] = assay: Antifungal activity against Aspergillus flavus at 100 ppm after 72 to 96 hr by disk diffusion method; type: functional; settings: read-out: IZ
Salmonella typhi [30] = assay: Antibacterial activity against Salmonella enterica subsp. enterica serovar Typhi at 200 ppm after 24 hr by disk diffusion method; type: functional; settings: read-out: IZ
Nannizzia gypsea [31] = assay: Antifungal activity against Microsporum gypseum at 200 ppm after 72 to 96 hr by disk diffusion method; type: functional; settings: read-out: IZ
Escherichia coli [32] = assay: Antibacterial activity against Escherichia coli at 500 ppm after 24 hr by disk diffusion method; type: functional; settings: read-out: IZ
Mucor [33] = assay: Antifungal activity against Mucor at 200 ppm after 72 to 96 hr by disk diffusion method; type: functional; settings: read-out: IZ
Nannizzia gypsea [34] = assay: Antifungal activity against Microsporum gypseum at 500 ppm after 72 to 96 hr by disk diffusion method; type: functional; settings: read-out: IZ
Salmonella typhi [35] = assay: Antibacterial activity against Salmonella enterica subsp. enterica serovar Typhi at 100 ppm after 24 hr by disk diffusion method; type: functional
Nannizzia gypsea [36] = assay: Antifungal activity against Microsporum gypseum at 100 ppm after 72 to 96 hr by disk diffusion method; type: functional; settings: read-out: IZ
Klebsiella pneumoniae [37] = assay: Antibacterial activity against Klebsiella pneumoniae at 500 ppm after 24 hr by disk diffusion method; type: functional; settings: read-out: IZ
Escherichia coli [38] = assay: Antibacterial activity against Escherichia coli at 100 ppm after 24 hr by disk diffusion method; type: functional, organism-based
Pseudomonas [39] = assay: Antibacterial activity against Pseudomonas at 100 ppm after 24 hr by disk diffusion method; type: functional
Rhizopus [40] = assay: Antifungal activity against Rhizopus at 500 ppm after 72 to 96 hr by disk diffusion method; type: functional; settings: read-out: IZ

| SMILES | inhibition zone (IZ) (Mucor [6]) | zone of inhibition at 500 ppm (Pseudomonas [7]) | inhibition zone (IZ) (Streptococcus [8]) | zone of inhibition at 100 ppm (Klebsiella pneumoniae [9]) | zone of inhibition at 500 ppm (Staphylococcus aureus [10]) | zone of inhibition at 200 ppm (Shigella flexneri [11]) | zone of inhibition at 200 ppm (Pseudomonas [12]) | zone of inhibition at 500 ppm (Vibrio cholerae [13]) | zone of inhibition at 500 ppm (Streptococcus [14]) | zone of inhibition at 200 ppm (Aspergillus flavus [15]) | zone of inhibition at 100 ppm (Shigella flexneri [16]) | zone of inhibition at 200 ppm (Streptococcus [17]) | zone of inhibition at 500 ppm (Aspergillus flavus [18]) | zone of inhibition at 200 ppm (Klebsiella pneumoniae [19]) | zone of inhibition at 100 ppm (Vibrio cholerae [20]) | zone of inhibition at 500 ppm (Shigella flexneri [21]) | zone of inhibition at 200 ppm (Staphylococcus aureus [22]) | zone of inhibition at 200 ppm (Escherichia coli [23]) | zone of inhibition at 200 ppm (Rhizopus [25]) | zone of inhibition at 500 ppm (Salmonella typhi [26]) | further results |
| --- | --- | --- | --- | --- | --- | --- | --- | --- | --- | --- | --- | --- | --- | --- | --- | --- | --- | --- | --- | --- | --- |
| OC(Cn1cncn1)(Cn1cncn1)c1ccc(F)cc1F [FLUCONAZOLE] | – | – | – | – | – | – | – | – | – | – | – | – | – | – | – | – | – | – | – | – | inhibition zone (IZ) (Nannizzia gypsea [1]): 20 mm; inhibition zone (IZ) (Rhizopus [2]): 20 mm; inhibition zone (IZ) (Mucor [3]): 20 mm; inhibition zone (IZ) (Aspergillus flavus [4]): 20 mm |
| CC1(C)c2nnsc2C(c2ccc(Cl)cc2)NC1c1ccc(Cl)cc1 (stereo unspecified) | inactive | 12 mm | inactive | 12 mm | 30 mm | 12 mm | 12 mm | 12 mm | 30 mm | 12 mm | 12 mm | 12 mm | 17 mm | 17 mm | 12 mm | 12 mm | 22 mm | 12 mm | 12 mm | 17 mm | inhibition zone (IZ) (Rhizopus [5]): inactive; zone of inhibition at 100 ppm (Staphylococcus aureus [24]; read-out: IZ): 12 mm; zone of inhibition at 200 ppm (Vibrio cholerae [27]): 12 mm; zone of inhibition at 500 ppm (Mucor [28]): 12 mm; zone of inhibition at 100 ppm (Aspergillus flavus [29]): 12 mm; zone of inhibition at 200 ppm (Salmonella typhi [30]): 17 mm; zone of inhibition at 200 ppm (Nannizzia gypsea [31]): 17 mm; zone of inhibition at 500 ppm (Escherichia coli [32]): 17 mm; zone of inhibition at 200 ppm (Mucor [33]): 12 mm; zone of inhibition at 500 ppm (Nannizzia gypsea [34]): 22 mm; inhibition zone (IZ) (Salmonella typhi [35]): inactive; zone of inhibition at 100 ppm (Nannizzia gypsea [36]): 12 mm; zone of inhibition at 500 ppm (Klebsiella pneumoniae [37]): 22 mm; inhibition zone (IZ) (Escherichia coli [38]): inactive; inhibition zone (IZ) (Pseudomonas [39]): inactive; zone of inhibition at 500 ppm (Rhizopus [40]): 22 mm |
| CC1(C)c2nnsc2C(c2ccc(F)cc2)NC1c1ccc(F)cc1 (stereo unspecified) | inactive | 17 mm | inactive | 17 mm | 30 mm | 17 mm | 17 mm | 17 mm | 22 mm | 17 mm | 12 mm | 17 mm | 17 mm | 17 mm | 12 mm | 17 mm | 22 mm | 17 mm | 22 mm | 12 mm | zone of inhibition at 100 ppm (Rhizopus [5]; read-out: IZ): 12 mm; inhibition zone (IZ) (Staphylococcus aureus [24]): inactive; zone of inhibition at 200 ppm (Vibrio cholerae [27]): 17 mm; zone of inhibition at 500 ppm (Mucor [28]): 17 mm; zone of inhibition at 100 ppm (Aspergillus flavus [29]): 12 mm; zone of inhibition at 200 ppm (Salmonella typhi [30]): 12 mm; zone of inhibition at 200 ppm (Nannizzia gypsea [31]): 22 mm; zone of inhibition at 500 ppm (Escherichia coli [32]): 17 mm; zone of inhibition at 200 ppm (Mucor [33]): 17 mm; zone of inhibition at 500 ppm (Nannizzia gypsea [34]): 30 mm; zone of inhibition at 100 ppm (Salmonella typhi [35]; read-out: IZ): 12 mm; zone of inhibition at 100 ppm (Nannizzia gypsea [36]): 17 mm; zone of inhibition at 500 ppm (Klebsiella pneumoniae [37]): 22 mm; inhibition zone (IZ) (Escherichia coli [38]): inactive; inhibition zone (IZ) (Pseudomonas [39]): inactive; zone of inhibition at 500 ppm (Rhizopus [40]): 22 mm |

Source: ChEMBL document CHEMBL3045391, “Synthesis and biological evaluation of 5,7-diaryl-4,4-dimethyl-4,5,6,7-tetrahydropyridino[3,4-d]-1,2,3-thiadiazoles” (2007)
